Assays:
Type in all cases: in vivo
[1] = system: ragweed (common ragweed, Ambrosia elatior); test: Test C greenhouse herbicide test, pre- and postemergence
In short: (§1)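 Greenhouse pots; pre-em on seeded loam:sand blend, post-em on 2–18 cm plants (1–4 leaf) in sphagnum peat/vermiculite medium. Formulation: non-phytotoxic solvent + surfactant. Read-out: visual % control (0–100) vs controls at 13–15 d.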

[2] = system: pigweed (Amaranthus retroflexus); test: as above
In short: as §1

[3] = system: crabgrass, large (large crabgrass, Digitaria sanguinalis); test: as above
In short: as §1

[4] = system: blackgrass (Alopecurus myosuroides); test: as above
In short: as §1

[5] = system: foxtail, giant (giant foxtail, Setaria faberii); test: as above
In short: as §1

[6] = system: morningglory (Ipomoea coccinea); test: as above
In short: as §1

[7] = system: wheat (winter wheat, Triticum aestivum); test: as above
In short: as §1

[8] = system: ryegrass, Italian (Italian ryegrass, Lolium multiflorum); test: as above
In short: as §1

[9] = system: soybean (Glycine max); test: as above
In short: as §1

[10] = system: corn (Zea mays); test: as above
In short: as §1

[11] = system: barnyardgrass (Echinochloa crus-galli); test: as above
In short: as §1

[12] = system: johnsongrass (Sorghum halepense); test: as above
In short: as §1

[13] = system: waterhemp (common waterhemp, Amaranthus rudis); test: as above
In short: as §1

[14] = system: lambsquarters (Chenopodium album); test: as above
In short: as §1

[15] = system: kochia (Kochia scoparia); test: Test C greenhouse herbicide test, postemergence
In short: (§2)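 Steps: pot plants in peat-based medium; spray postemergence at 1- to 4-leaf stage; hold in greenhouse 13 to 15 d; score visually against controls from 0 (no effect) to 100 (complete control).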

[16] = system: oat, wild (wild oat, Avena fatua); test: Test C greenhouse herbicide test, postemergence
In short: as §2

[17] = Postemergence, 31 g ai/ha, 0 to 100 scale (0 no effect, 100 complete control)
[18] = Postemergence, 125 g ai/ha, scale 0 to 100, 0 is no effect, 100 is complete control
[19] = Postemergence, 250 g ai/ha, scale 0 to 100, 0 no effect, 100 complete control, 13 to 15 d
[20] = Preemergence, 31 g ai/ha, scale 0 to 100, 0 is no effect, 100 is complete control
[21] = Preemergence, 62 g ai/ha, scale 0 to 100, 0 is no effect, 100 is complete control
[22] = Preemergence, 125 g ai/ha, scale 0 to 100, 0 is no effect, 100 is complete control
[23] = Preemergence, 250 g ai/ha, scale 0 to 100 (0 no effect, 100 complete control)
[24] = postemergence, 62 g ai/ha, scale 0 to 100, 0 no effect, 100 complete control

For CCOC(=O)Oc1c(C)nn(C)c(=O)c1-c1c(C)ccc2ccccc12 [Compound 73], the “Ragweed plant response rating” value [1, 17] was 85, the “Plant response rating, Ragweed” value [1, 18] was 90 and the “Plant response rating, Ragweed” value [1, 19] was 90. For the same compound, the “Plant response rating, Ragweed” value [1, 20] was 85, the “Plant response rating, Ragweed” value [1, 21] was 95 and the “Plant response rating, Ragweed” value [1, 22] was 95. The “Ragweed plant response rating” value [1, 23] was 98, the “Ragweed plant response rating” value [1, 24] was 90 and the “Pigweed plant response rating” value [2, 17] was 80. The “Plant response rating, Pigweed” value [2, 18] was 95, the “Plant response rating, Pigweed” value [2, 19] was 98 and the “Plant response rating, Pigweed” value [2, 20] was 95. The “Plant response rating, Pigweed” value [2, 21] was 100, the “Plant response rating, Pigweed” value [2, 22] was 100 and the “Pigweed plant response rating” value [2, 23] was 98. For the same compound, the “Pigweed plant response rating” value [2, 24] was 85, the “Crabgrass, Large plant response rating” value [3, 17] was 30 and the “Plant response rating, Crabgrass, Large” value [3, 18] was 60. For the same compound, the “Plant response rating, Crabgrass, Large” value [3, 19] was 75, the “Plant response rating, Crabgrass, Large” value [3, 20] was 0 and the “Plant response rating, Crabgrass, Large” value [3, 21] was 30. For the same compound, the “Plant response rating, Crabgrass, Large” value [3, 22] was 75, the “Crabgrass, Large plant response rating” value [3, 23] was 75 and the “Crabgrass, Large plant response rating” value [3, 24] was 35. The “Blackgrass plant response rating” value [4, 17] was 40, the “Plant response rating, Blackgrass” value [4, 18] was 90 and the “Plant response rating, Blackgrass” value [4, 19] was 90. The “Plant response rating, Blackgrass” value [4, 20] was 50, the “Plant response rating, Blackgrass” value [4, 21] was 80 and the “Plant response rating, Blackgrass” value [4, 22] was 85. The “Blackgrass plant response rating” value [4, 23] was 90, the “Blackgrass plant response rating” value [4, 24] was 85 and the “Foxtail, Giant plant response rating” value [5, 17] was 40. For the same compound, the “Plant response rating, Foxtail, Giant” value [5, 18] was 75, the “Plant response rating, Foxtail, Giant” value [5, 19] was 85 and the “Plant response rating, Foxtail, Giant” value [5, 20] was 55. The “Plant response rating, Foxtail, Giant” value [5, 21] was 70, the “Plant response rating, Foxtail, Giant” value [5, 22] was 85 and the “Foxtail, Giant plant response rating” value [5, 23] was 95. For the same compound, the “Foxtail, Giant plant response rating” value [5, 24] was 65, the “Morningglory plant response rating” value [6, 17] was 75 and the “Plant response rating, Morningglory” value [6, 18] was 95. The “Plant response rating, Morningglory” value [6, 19] was 95, the “Plant response rating, Morningglory” value [6, 20] was 85 and the “Plant response rating, Morningglory” value [6, 21] was 90. The “Plant response rating, Morningglory” value [6, 22] was 90, the “Morningglory plant response rating” value [6, 23] was 95 and the “Morningglory plant response rating” value [6, 24] was 90. The “Wheat plant response rating” value [7, 17] was 10, the “Plant response rating, Wheat” value [7, 18] was 35 and the “Plant response rating, Wheat” value [7, 19] was 40. The “Plant response rating, Wheat” value [7, 20] was 0, the “Plant response rating, Wheat” value [7, 21] was 20 and the “Plant response rating, Wheat” value [7, 22] was 35. The “Wheat plant response rating” value [7, 23] was 60, the “Wheat plant response rating” value [7, 24] was 30 and the “Ryegrass, Italian plant response rating” value [8, 17] was 85. The “Plant response rating, Ryegrass, Italian” value [8, 18] was 90, the “Plant response rating, Ryegrass, Italian” value [8, 19] was 90 and the “Plant response rating, Ryegrass, Italian” value [8, 20] was 75. For the same compound, the “Plant response rating, Ryegrass, Italian” value [8, 21] was 90, the “Plant response rating, Ryegrass, Italian” value [8, 22] was 90 and the “Ryegrass, Italian plant response rating” value [8, 23] was 90. The “Ryegrass, Italian plant response rating” value [8, 24] was 90, the “Soybean plant response rating” value [9, 17] was 0 and the “Plant response rating, Soybean” value [9, 18] was 25. The “Plant response rating, Soybean” value [9, 19] was 45, the “Plant response rating, Soybean” value [9, 20] was 0 and the “Plant response rating, Soybean” value [9, 21] was 0. The “Plant response rating, Soybean” value [9, 22] was 0, the “Soybean plant response rating” value [9, 23] was 0 and the “Soybean plant response rating” value [9, 24] was 15. The “Corn plant response rating” value [10, 17] was 5, the “Plant response rating, Corn” value [10, 18] was 20 and the “Plant response rating, Corn” value [10, 19] was 60. For the same compound, the “Plant response rating, Corn” value [10, 20] was 0, the “Plant response rating, Corn” value [10, 21] was 0 and the “Plant response rating, Corn” value [10, 22] was 5. For the same compound, the “Corn plant response rating” value [10, 23] was 25, the “Corn plant response rating” value [10, 24] was 20 and the “Barnyardgrass plant response rating” value [11, 17] was 25. The “Plant response rating, Barnyardgrass” value [11, 18] was 55, the “Plant response rating, Barnyardgrass” value [11, 19] was 60 and the “Plant response rating, Barnyardgrass” value [11, 20] was 10. The “Plant response rating, Barnyardgrass” value [11, 21] was 25, the “Plant response rating, Barnyardgrass” value [11, 22] was 70 and the “Barnyardgrass plant response rating” value [11, 23] was 85. For the same compound, the “Barnyardgrass plant response rating” value [11, 24] was 40, the “Johnsongrass plant response rating” value [12, 17] was 5 and the “Plant response rating, Johnsongrass” value [12, 18] was 40. The “Plant response rating, Johnsongrass” value [12, 19] was 50, the “Plant response rating, Johnsongrass” value [12, 20] was 0 and the “Plant response rating, Johnsongrass” value [12, 21] was 10. The “Plant response rating, Johnsongrass” value [12, 22] was 35, the “Johnsongrass plant response rating” value [12, 23] was 55 and the “Johnsongrass plant response rating” value [12, 24] was 5. For the same compound, the “Waterhemp plant response rating” value [13, 17] was 75, the “Plant response rating, Waterhemp” value [13, 18] was 85 and the “Plant response rating, Waterhemp” value [13, 19] was 100. The “Plant response rating, Waterhemp” value [13, 20] was 85, the “Plant response rating, Waterhemp” value [13, 21] was 90 and the “Plant response rating, Waterhemp” value [13, 22] was 90. For the same compound, the “Waterhemp plant response rating” value [13, 23] was 95, the “Waterhemp plant response rating” value [13, 24] was 75 and the “Lambsquarters plant response rating” value [14, 17] was 90. The “Plant response rating, Lambsquarters” value [14, 18] was 95, the “Plant response rating, Lambsquarters” value [14, 19] was 98 and the “Plant response rating, Lambsquarters” value [14, 20] was 75. For the same compound, the “Plant response rating, Lambsquarters” value [14, 21] was 70, the “Plant response rating, Lambsquarters” value [14, 22] was 80 and the “Lambsquarters plant response rating” value [14, 23] was 90. The “Lambsquarters plant response rating” value [14, 24] was 95, the “Kochia plant response rating” value [15, 17] was 90 and the “Plant response rating, Kochia” value [15, 18] was 90. For the same compound, the “Plant response rating, Kochia” value [15, 19] was 100, the “Kochia plant response rating” value [15, 24] was 90 and the “Oat, Wild plant response rating” value [16, 17] was 75. The “Plant response rating, Oat, Wild” value [16, 18] was 95, the “Plant response rating, Oat, Wild” value [16, 19] was 95 and the “Oat, Wild plant response rating” value [16, 24] was 90.

From US10597388B2, “Pyridazinone herbicides” (FMC CORPORATION, priority 2014, dated 2020)
